Here are results for 30 molecules from US20250019387A1 (Frontier Medicines Corporation, priority 0001, published 2025).

Like-named read-outs stand apart in the source and are kept apart here. Bounds are passed on as bounds.

One may read the IC50 as the concentration that inhibits the measured activity by half.

In the assay the target is KRAS G12C and cRAF (Ras-binding domain) interaction (Homo sapiens (Human), UniProt P01116, C118S/C51S/C80L/G12C). In words: Inhibition of KRAS G12C and cRAF binding (AlphaScreen). The essentials: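 IC50 values come from 4-parameter nonlinear regression of AlphaScreen signal (680 nm excitation, 570 nm emission). Compound plates sat 19-20 h at room temperature before RBD and donor/acceptor beads were added in Hepes pH 7.4 buffer with 150 mM NaCl, 5 mM MgCl2, 2% DMSO for 60-90 min; biotin-AviTag-GST replaced RBD to flag assay-technology interferers.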
Background: Bead proximity is the source of the signal in Alpha formats.

[1] abbreviates: GMPPNP-loaded KRAS G12C, 19-20 hours incubation with compound, read-out: IC50 (Inhibition of KRAS G12C and cRAF Binding).
[2] abbreviates: additional exemplary compounds, KRAS G12C and cRAF binding, read-out: RAF1 RBD IC50.

KRAS G12C and cRAF (Ras-binding domain) interaction, sequence (P01116 other isoform, or with tags, fused parts or gaps G12C/C51S/C80L/C118S): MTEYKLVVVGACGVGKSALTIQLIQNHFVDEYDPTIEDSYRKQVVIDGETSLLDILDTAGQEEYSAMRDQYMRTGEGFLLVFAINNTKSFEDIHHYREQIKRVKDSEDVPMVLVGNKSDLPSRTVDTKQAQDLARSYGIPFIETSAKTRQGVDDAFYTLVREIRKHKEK

As for `CN(c1nc(OC[C@@]23CCCN2C[C@H](F)C3)nc2c(F)c(-c3cccc4ccc(F)c(Cl)c34)ncc12)[C@@H]1CCN(C(=O)C#CCN2CC(F)C2)C1` [Example 225, 1-((R)-3-((7-(8-chloro-7-fluoronaphthalen-1-yl)-8-fluoro-2-(((2R,7aS)-2-fluorohexahydro-1H-pyrrolizin-7a-yl)methoxy)pyrido[4,3-d]pyrimidin-4-yl)(methyl)amino)pyrrolidin-1-yl)-4-(3-fluoroazetidin-1-yl)but-2-yn-1-one], the IC50 under setting [1] lay within 10 to 100 nM.
`Cc1nccc(/C=C/C(=O)N2CCC23CN(c2nc(OC[C@@]45CCCN4C[C@H](F)C5)nc4c(F)c(-c5cccc6cccc(Cl)c56)ncc24)C3)n1`: the IC50 under setting [2] was more than 500 nM.
Same read-out and setting: next, `C=CC(=O)N1CCC(N(c2nc(OC[C@@]34CCCN3C[C@H](F)C4)nc3c(F)c(-c4cccc5cccc(Cl)c45)ncc23)C2CC2)C1` (stereo partly drawn): more than 500 nM.
Take `CN(c1nc(OC[C@@]23CCCN2C[C@H](F)C3)nc2c(F)c(-c3cccc4cccc(Cl)c34)ncc12)[C@@H]1CCN(C(=O)C#C[C@]2(C)CCCN2C)C1` [Example 193, 1-((R)-3-((7-(8-chloronaphthalen-1-yl)-8-fluoro-2-(((2R,7aS)-2-fluorohexahydro-1H-pyrrolizin-7a-yl)methoxy)pyrido[4,3-d]pyrimidin-4-yl)(methyl)amino)pyrrolidin-1-yl)-3-((S)-1,2-dimethylpyrrolidin-2-yl)prop-2-yn-1-one]: the IC50 under setting [1] lay in the range of 10 to 100 nM.
Turning to `C=CC(=O)N1CC(N(C)c2nc(OCC34CCCN3CCC4)nc3c(F)c(-c4cccc5cccc(Cl)c45)ncc23)C1`, the IC50 under setting [2] was more than 500 nM.
For the molecule `C#Cc1c(F)ccc2cccc(-c3ncc4c(N(C)[C@@H]5CCCN(C(=O)/C=C/c6cc(C)nc(C)n6)C5)nc(OC[C@@]56CCCN5C[C@H](F)C6)nc4c3F)c12`, under setting [2], the IC50 fell in the range of 100 to 500 nM.
On to `CN(c1nc(OC[C@@]23CCCN2C[C@H](F)C3)nc2c(F)c(-c3cccc4cccc(Cl)c34)ncc12)[C@@H]1CCN(C(=O)C=C2CCC2)C1` [Example 267, 1-((R)-3-((7-(8-chloronaphthalen-1-yl)-8-fluoro-2-(((2R,7aS)-2-fluorotetrahydro-1H-pyrrolizin-7a(5H)-yl)methoxy)pyrido[4,3-d]pyrimidin-4-yl)(methyl)amino)pyrrolidin-1-yl)-2-cyclobutylideneethan-1-one], for which the IC50 under setting [1] fell in the range of 100 to 500 nM.
Still for that read-out and setting: next, `CN(c1nc(OCC23CCCN2CCC3)nc2c1CCN(c1cccc3cccc(Cl)c13)C2)[C@@H]1CCN(C(=O)/C=C/c2nc([C@H]3C[C@@H]3F)no2)C1` [Example 141, (E)-1-((R)-3-((7-(8-chloronaphthalen-1-yl)-2-((hexahydro-1H-pyrrolizin-7a-yl)methoxy)-5,6,7,8-tetrahydropyrido[3,4-d]pyrimidin-4-yl)(methyl)amino)pyrrolidin-1-yl)-3-(3-((1R,2S)-2-fluorocyclopropyl)-1,2,4-oxadiazol-5-yl)prop-2-en-1-one]: 10 to 100 nM.
As to `Cc1nccc(/C=C/C(=O)N2CCC[C@@H](Nc3nc(OC[C@@]45CCCN4C[C@H](F)C5)nc4c(F)c(-c5cccc6cccc(Cl)c56)ncc34)C2)n1` [Example 262, (E)-1-((R)-3-((7-(8-chloronaphthalen-1-yl)-8-fluoro-2-(((2R,7aS)-2-fluorotetrahydro-1H-pyrrolizin-7a(5H)-yl)methoxy)pyrido[4,3-d]pyrimidin-4-yl)amino)piperidin-1-yl)-3-(2-methylpyrimidin-4-yl)prop-2-en-1-one], under setting [1], the IC50 lay within 100 to 500 nM.
As to `C=CC(=O)N1CC[C@@H](N(C)c2nc(OC[C@@]34CCCN3C[C@@H](F)C4)nc3c2CCN(c2cccc4cccc(Cl)c24)C3)C1`, the IC50 under setting [2] is more than 500 nM.
With `C#Cc1c(F)ccc2cccc(-c3ncc4c(N(C)[C@@H]5CCN(C(=O)C=C6CN(C)C6)C5)nc(OC[C@@]56CCCN5C[C@H](F)C6)nc4c3F)c12` [Example 298, 1-((R)-3-((7-(8-ethynyl-7-fluoronaphthalen-1-yl)-8-fluoro-2-(((2R,7aS)-2-fluorotetrahydro-1H-pyrrolizin-7a(5H)-yl)methoxy)pyrido[4,3-d]pyrimidin-4-yl)(methyl)amino)pyrrolidin-1-yl)-2-(1-methylazetidin-3-ylidene)ethan-1-one], the IC50 under setting [1] is less than 10 nM.
As for `C=CC(=O)N1CCC1CN(C)c1nc(OC[C@@]23CCCN2C[C@H](F)C3)nc2c(F)c(-c3cccc4cccc(Cl)c34)ncc12` (stereo partly drawn), the IC50 under setting [2] is more than 500 nM.
Same read-out and setting: next, `C=CC(=O)N1CCCC1CN(C)c1nc(OC[C@@]23CCCN2C[C@H](F)C3)nc2c(F)c(-c3cccc4cccc(Cl)c34)ncc12` (stereo partly drawn): more than 500 nM; `C=CC(=O)N1CC[C@@H](N(C)c2nc(OC[C@]34CCCN3C[C@@H](F)C4)nc3c(F)c(-c4cccc5cccc(Cl)c45)ncc23)C1`: 100 to 500 nM.
With `C=CC(=O)N1C[C@H](N(C)c2nc(OCC34CCCN3CCC4)nc3c(F)c(-c4cccc5cccc(Cl)c45)ncc23)C[C@H]1C`, under setting [2], the IC50 was more than 500 nM.
The same measure, in the same setting: next, `C=CC(=O)N1C[C@H](C)C[C@H](Nc2nc(OC[C@@]34CCCN3C[C@H](F)C4)nc3c(F)c(-c4cccc5cccc(Cl)c45)ncc23)C1`: more than 500 nM.
As to `CCN(CCNC(=O)/C=C/C(=O)OC)c1nc(OC[C@@H]2CCCN2C)nc2c1CCN(c1cccc3cccc(Cl)c13)C2` [Example 12, methyl(S,E)-4-((2-((7-(8-chloronaphthalen-1-yl)-2-((1-methylpyrrolidin-2-yl)methoxy)-5,6,7,8-tetrahydropyrido[3,4-d]pyrimidin-4-yl)(ethyl)amino)ethyl)amino)-4-oxobut-2-enoate], under setting [1], the IC50 was more than 500 nM.
Still for that read-out and setting: next, `C=CC(=O)N1CC(CN(C)c2nc(OC[C@@]34CCCN3C[C@H](F)C4)nc3c(F)c(-c4cccc5ccc(F)c(CC)c45)ncc23)C1` [Example 254, 1-(3-(((7-(8-ethyl-7-fluoronaphthalen-1-yl)-8-fluoro-2-(((2R,7aS)-2-fluorohexahydro-1H-pyrrolizin-7a-yl)methoxy)pyrido[4,3-d]pyrimidin-4-yl)(methyl)amino)methyl)azetidin-1-yl)prop-2-en-1-one]: 10 to 100 nM; `CN(CC1CN(C(=O)C#CCN2CCOCC2)C1)c1nc(OC[C@@]23CCCN2C[C@H](F)C3)nc2c(F)c(-c3cccc4cccc(Cl)c34)ncc12` [Example 91, 1-(3-(((7-(8-chloronaphthalen-1-yl)-8-fluoro-2-(((2R,7aS)-2-fluorotetrahydro-1H-pyrrolizin-7a(5H)-yl)methoxy)pyrido[4,3-d]pyrimidin-4-yl)(methyl)amino)methyl)azetidin-1-yl)-4-morpholinobut-2-yn-1-one]: 100 to 500 nM; `CN(CC1CN(C(=O)/C=C/CN2CCOCC2)C1)c1nc(OC[C@@]23CCCN2C[C@H](F)C3)nc2c(F)c(-c3cccc4cccc(Cl)c34)ncc12` [Example 89, (E)-1-(3-(((7-(8-chloronaphthalen-1-yl)-8-fluoro-2-(((2R,7aS)-2-fluorotetrahydro-1H-pyrrolizin-7a(5H)-yl)methoxy)pyrido[4,3-d]pyrimidin-4-yl)(methyl)amino)methyl)azetidin-1-yl)-4-morpholinobut-2-en-1-one]: 10 to 100 nM.
With `CN(CCS(=O)(=O)/C=C/CC1CC1)c1nc(OCC23CCCN2CCC3)nc2c1CCN(c1cccc3cccc(Cl)c13)C2`, the IC50 under setting [2] is more than 500 nM.
Regarding `COC/C=C/S(=O)(=O)CCN(C)c1nc(OCC23CCCN2CCC3)nc2c1CCN(c1cccc3cccc(Cl)c13)C2`, under setting [2], the IC50 is 100 to 500 nM.
Take `Cc1coc(/C=C/C(=O)N2CC[C@@H](N(C)c3nc(OCC45CCCN4CCC5)nc4c(F)c(-c5cccc6cccc(Cl)c56)ncc34)C2)n1` [Example 143, (R,E)-1-(3-((7-(8-chloronaphthalen-1-yl)-8-fluoro-2-((tetrahydro-1H-pyrrolizin-7a(5H)-yl)methoxy)pyrido[4,3-d]pyrimidin-4-yl)(methyl)amino)pyrrolidin-1-yl)-3-(4-methyloxazol-2-yl)prop-2-en-1-one]: the IC50 under setting [1] lay within 100 to 500 nM.
On the same count and under the same terms, next, `CN(c1nc(OC[C@@]23CCCN2C[C@H](F)C3)nc2c1CCN(c1cccc3cccc(Cl)c13)C2)[C@@H]1CCN(C(=O)/C=C/c2cn(C)cn2)C1` [Example 110, (E)-1-((R)-3-((7-(8-chloronaphthalen-1-yl)-2-(((2R,7aS)-2-fluorohexahydro-1H-pyrrolizin-7a-yl)methoxy)-5,6,7,8-tetrahydropyrido[3,4-d]pyrimidin-4-yl)(methyl)amino)pyrrolidin-1-yl)-3-(1-methyl-1H-imidazol-4-yl)prop-2-en-1-one]: more than 500 nM.
Consider `C=CC(=O)N1CC[C@@H](N(C)c2nc(OC[C@@]34CCCN3C[C@H](F)C4)nc3c(F)c(-c4cccc5cccc(C(F)(F)F)c45)ncc23)C1`, for which the IC50 under setting [2] is 10 to 100 nM.
The same measure, in the same setting: next, `C=CC(=O)N1CCC1CN(C)c1nc(OC[C@@]23CCCN2C[C@H](F)C3)nc2c1CCN(c1cccc3cccc(Cl)c13)C2` (stereo partly drawn): more than 500 nM.
Consider `CN(c1nc(OC[C@@]23CCCN2C[C@H](F)C3)nc2c1CCN(c1cccc3cccc(Cl)c13)C2)[C@@H]1CCN(C(=O)/C=C/c2nc(C(C)(C)C)no2)C1` [Example 148, (E)-3-(3-(tert-butyl)-1,2,4-oxadiazol-5-yl)-1-((R)-3-((7-(8-chloronaphthalen-1-yl)-2-(((2R,7aS)-2-fluorohexahydro-1H-pyrrolizin-7a-yl)methoxy)-5,6,7,8-tetrahydropyrido[3,4-d]pyrimidin-4-yl)(methyl)amino)pyrrolidin-1-yl)prop-2-en-1-one], for which the IC50 under setting [1] was in the range of 100 to 500 nM.
Turning to `CN(C)C(=O)/C=C/C(=O)N1CC(CN(C)c2nc(OCC34CCCN3CCC4)nc3c2CCN(c2cccc4cccc(Cl)c24)C3)C1`, under setting [2], the IC50 is more than 500 nM.
Regarding `C=CC(=O)N1CC[C@@H](F)[C@@H](N(C)c2nc(OC[C@@]34CCCN3C[C@H](F)C4)nc3c(F)c(-c4cccc5cccc(Cl)c45)ncc23)C1`, the IC50 under setting [2] was more than 500 nM.
Same read-out and setting: next, `CN(c1nc(OC[C@@]23CCCN2C[C@H](F)C3)nc2c1CCN(c1cccc3cccc(Cl)c13)C2)[C@@H]1CCN(C(=O)/C=C/c2ccncn2)C1`: more than 500 nM.
